Patent US6699846B2, “Mono- and disaccharides for the treatment of nitric oxide related disorders” (Corixa Corporation, priority 2000, dated 2004)
Where two headings read alike, the source gives them in different places.

Assays:
[1] = tested on: human myelomonocytic cell line THP-1; assay: proinflammatory cytokine elaboration from THP-1 cells; format: cell-based; conditions: for cytokine stimulation: second table; for cytokine stimulation / cytokine induction: TNF-α, IL-1β, class symbols
Procedure: The human myelomonocytic cell line THP-1 (ATCC) was used to evaluate the ability of glycolipids to induce proinflammatory cytokines. Glycolipids were added to cell suspensions of THP-1 as aqueous solutions containing 10% ethanol in water for injection. Prior to the 4 hr inductions, THP-1 cells are pre-incubated overnight with 10^−7 M vitamin D3, washed three times and replated in the presence of MPL®, LPS or the synthetic compounds. After 4 hr coincubating of cells with glycolipids, media containing drug is removed, cells resuspended in fresh media and allowed to rest for 20 hr.

USP rabbit pyrogen test = format: in vivo; conditions: for pyrogenicity: 2.5 μg dose, class symbols
Source text: (§1) In clinical trials with monophosphoryl lipid A, fever was generally the first observed side effect. In clinical studies of various formulations of monophosphoryl lipid A administered intravenously, moderate fever, flu-like symptoms and alterations in blood pressure seem to be side effects that establish maximally tolerated doses. Minimum pyrogenic monophosphoryl lipid A doses, adjusted for body weight, as determined in the USP rabbit pyrogen test agree well with results observed in humans. […] In contrast, monophosphoryl lipid A becomes pyrogenic at intravenous doses of approximately 15 μg/kg (temperature increase of about 0.5° C.).

[2] = tested on: iNOS induction in J774 murine macrophages; assay: iNOS induction (nitrite release, Greiss reagent) in IFN-γ primed J774 cells; format: cell-based; conditions: for iNOS: second table, class symbols
Procedure: The murine macrophage cell line J774 can be primed by IFN-γ in vitro and is very responsive to subsequent LPS stimulation of iNOS upregulation as measured by a standard Greiss reagent ELISA assay procedure. The assay utilizes J774 cells seeded at 1×10^6/mL with 30 mL/flask and with IFN-γ added at 100 units/mL for 16-24 hrs. Cells are then harvested and washed and resuspended at 2×10^5/well in a 96-well plate and allowed to adhere. Glycolipid compounds are serially diluted into the wells for a test group and the resulting cultures are incubated for another 36-40 hrs before culture supernatants are collected from Greiss reagent analysis of nitrite release. Nitrite content closely parallels iNOS function.
Potency was determined as the concentration (ng/mL) of glycolipid in culture capable of inducing one-half maximal induction of nitrite (ED50). The lower the ED50 number, the greater the potency for iNOS induction.

[3] = tested on: pig infarct (LAD occlusion); assay: pig infarct study (LAD occlusion), acute cardioprotection; format: in vivo
Procedure: A total of 35 pigs were enrolled in the study: 8 in group 1; 10 in group 2; 7 in group 3, 7 in group 4; and 3 in group 5. When the data were analyzed, infarct size results from the two L-NAME control groups (1 and 3) were combined.

body temperature in rats = format: in vivo, rat
body temperature in dogs = format: in vivo, dog
Source text: as §1

cardiac ischemia [4] = conditions: dogs
Source text: Free-radicals produced during reperfusion promote cell death. Free-radical damage to cells results in calcium overload and a decrease in activity of a variety of enzyme systems including, presumably, nitric oxide synthase causing a decrease in nitric oxide production leading to increases in neutrophil adhesion.

cardiac ischemia [5] = conditions: rabbits, treated about 24 h before cardiac ischemia
ischemic tissues = conditions: infusion immediately following bolus dosing
[6] = THP-1 cells, not elicited up to this concentration

CCCCCCCCCCCC(CC(=O)N[C@H]1[C@H](OC[C@H](NC(=O)CC(CCCCCCCCCCC)OC(=O)CCCCCC)C(=O)O)O[C@H](CO)[C@@H](OP(=O)(O)O)[C@@H]1OC(=O)CC(CCCCCCCCCCC)OC(=O)CCCCCC)OC(=O)CCCCCC (some centres unmarked) [Compound 5.54]
cytokine stimulation [1]: − (−, not observable at 10 μg/mL)
pyrogenicity (USP rabbit pyrogen test; second table): ++ (++>2° C.)
iNOS [2]: − (−>200)

CCCCCCCCCCCC(CC(=O)N[C@H]1[C@H](OC[C@H](NC(=O)CC(CCCCCCCCCCC)OC(=O)CCCCCCCCC)C(=O)O)O[C@H](CO)[C@@H](OP(=O)(O)O)[C@@H]1OC(=O)CC(CCCCCCCCCCC)OC(=O)CCCCC)OC(=O)CCCCCCCCC (some centres unmarked) [Compound 5.66]
cytokine stimulation [1]: − (−, not observable at 10 μg/mL)
pyrogenicity (USP rabbit pyrogen test; second table): ++ (++>2° C.)
iNOS [2]: ++ (++<80)

CCCCCCCCCCCCCCCC(=O)OC(CCCCCCCCCCC)CC(=O)NC1C(O)OC(COC2OC(CO)C(OP(=O)(O)O)C(OC(=O)CC(CCCCCCCCCCC)OC(=O)CCCCCCCCCCCCC)C2NC(=O)CC(CCCCCCCCCCC)OC(=O)CCCCCCCCCCCCC)C(O)C1O (centres unmarked) [Compound 5.20]
cytokine induction [1]: ++ (++, observable @ 1 μg/mL)
pyrogenicity (USP rabbit pyrogen test): − (−<1° C.)

CCCCCCCCCCCC(CC(=O)NC1C(O)OC(COC2OC(CO)C(OP(=O)(O)O)C(OC(=O)CC(CCCCCCCCCCC)OC(=O)CCC)C2NC(=O)CC(CCCCCCCCCCC)OC(=O)CCC)C(O)C1O)OC(=O)CCC (centres unmarked) [Compound 5.32]
cytokine induction [1]: − (−, not observable at 10 μg/mL)
pyrogenicity (USP rabbit pyrogen test): ++ (++>2° C.)

CCCCCCCCCCCCCC(=O)O[C@H](CCCCCCCCCCC)CC(=O)NCCO[C@@H]1O[C@H](CO)[C@@H](OP(=O)(O)O)[C@H](OC(=O)C[C@@H](CCCCCCCCCCC)OC(=O)CCCCCCCCCCCCC)[C@H]1NC(=O)C[C@@H](CCCCCCCCCCC)OC(=O)CCCCCCCCCCCCC [Compound 5.29]
cytokine induction [1]: ++ (++, observable @ 1 μg/mL)
pyrogenicity (USP rabbit pyrogen test): − (−<1° C.)

CCCCCCCCCCCC(CC(=O)NC1C(O)OC(COC2OC(CO)C(OP(=O)(O)O)C(OC(=O)CC(CCCCCCCCCCC)OC(C)=O)C2NC(=O)CC(CCCCCCCCCCC)OC(C)=O)C(O)C1O)OC(C)=O (centres unmarked) [Compound 5.18]
cytokine induction [1]: − (−, not observable at 10 μg/mL)
pyrogenicity (USP rabbit pyrogen test): + (+, from 1-2° C.)

CCCCCCCCCCCCCC(=O)O[C@H](CCCCCCCCCCC)CC(=O)NCCCO[C@@H]1O[C@H](CO)[C@@H](OP(=O)(O)O)[C@H](OC(=O)C[C@@H](CCCCCCCCCCC)OC(=O)CCCCCCCCCCCCC)[C@H]1NC(=O)C[C@@H](CCCCCCCCCCC)OC(=O)CCCCCCCCCCCCC [Compound 5.25]
cytokine induction [1]: ++ (++, observable @ 1 μg/mL)
pyrogenicity (USP rabbit pyrogen test): − (−<1° C.)

CCCCCCCCCCC[C@H](CC(=O)NCCO[C@@H]1O[C@H](CO)[C@@H](OP(=O)(O)O)[C@H](OC(=O)C[C@@H](CCCCCCCCCCC)OC(=O)CCCCC)[C@H]1NC(=O)C[C@@H](CCCCCCCCCCC)OC(=O)CCCCC)OC(=O)CCCCC [Compound 5.23]
cytokine induction [1]: − (−, not observable at 10 μg/mL)
pyrogenicity (USP rabbit pyrogen test): − (−<1° C.)

CCCCCCCCCCCC(CC(=O)N[C@H]1[C@H](OC[C@H](NC(=O)CC(CCCCCCCCCCC)OC(=O)CCCCC)C(=O)O)O[C@H](CO)[C@@H](OP(=O)(O)O)[C@@H]1OC(=O)CC(CCCCCCCCCCC)OC(=O)CCCCC)OC(=O)CCCCCCCCC (some centres unmarked) [Compound 5.68]
cytokine stimulation [1]: − (−, not observable at 10 μg/mL)
pyrogenicity (USP rabbit pyrogen test; second table): ++ (++>2° C.)
iNOS [2]: − (−>200)

CCCCCCCCCCCCCCCCCC(=O)OC(CCCCCCCCCCC)CC(=O)NC1C(OCC2OC(O)C(NC(=O)CC(CCCCCCCCCCC)OC(=O)CCCCCCCCCCCCCCC)C(O)C2O)OC(CO)C(OP(=O)(O)O)C1OC(=O)CC(CCCCCCCCCCC)OC(=O)CCCCCCCCCCCCC (centres unmarked) [RC-552]
mean infarct size ([3]; pigs, 29 μg/kg i.v. bolus 10 minutes prior to ischemia (LAD occlusion), vehicle 28.9±5.0%): 14.2±3.0%
mean infarct size, L-NAME before RC-552 ([3]; pigs, 0.5 mg/kg L-NAME 30 minutes prior to 29 μg/kg RC-552): 40.2±4.4%
reduction of infarct size vs vehicle pretreated pigs ([3]; treated 10 minutes prior to ischemia): 50%
concentration inducing IL-1B secretion ([1]; THP-1 cells, 4 hr induction): > 10,000 ng/mL
concentration inducing IL-8 elaboration ([1]; THP-1 cells, 4 hr induction): > 10,000 ng/mL
concentration eliciting IL-1 [1, 6]: > 10,000 μg/mL
concentration eliciting IL-8 [1, 6]: > 10,000 μg/mL
concentration inducing TNF secretion ([1]; THP-1 cells, not induced up to this concentration): > 10,000 μg/mL
cytokine induction [1]: − (−, not observable at 10 μg/mL)
pyrogenicity (USP rabbit pyrogen test): − (−<1° C.)
average temperature increase (USP rabbit pyrogen test; rabbits, i.v. doses up to at least 1,000 μg/kg, 10% ethanol in USP WFI): less than 0.35 °C
intravenous dose without detectable increase in temperature (body temperature in rats): > 3 mg/kg
intravenous dose without detectable increase in temperature (body temperature in dogs): > 3 mg/kg
maximal iNOS activity / nitrite elaboration ([2]; J774, IFN-γ primed): very low maximal iNOS activity
delayed cardioprotective effect after NOS inhibitor (aminoguanidine or L-NAME) (cardiac ischemia [4]): blocked
delayed protection (cardiac ischemia [4]; treated about 24 h before cardiac ischemia): reduced infarct size and stunning
delayed protection (cardiac ischemia [5]): reduced infarct size and stunning
duration of extended acute protective effect (ischemic tissues): at least 3 h

CCCCCCCCCCCC(CC(=O)NC1C(O)OC(COC2OC(CO)C(OP(=O)(O)O)C(OC(=O)CC(CCCCCCCCCCC)OC(=O)CCCCC)C2NC(=O)CC(CCCCCCCCCCC)OC(=O)CCCCC)C(O)C1O)OC(=O)CCCCC (centres unmarked) [Compound 5.31]
cytokine induction [1]: − (−, not observable at 10 μg/mL)
pyrogenicity (USP rabbit pyrogen test): − (−<1° C.)

CCCCCCCCCCC[C@H](CC(=O)N[C@H]1[C@H](OC[C@H](NC(=O)C[C@@H](CCCCCCCCCCC)OC(=O)CCCCC)C(N)=O)O[C@H](CO)[C@@H](OP(=O)(O)O)[C@@H]1OC(=O)C[C@@H](CCCCCCCCCCC)OC(=O)CCCCC)OC(=O)CCCCC [Compound 5.21]
cytokine induction [1]: − (−, not observable at 10 μg/mL)
pyrogenicity (USP rabbit pyrogen test): − (−<1° C.)

COC(=O)[C@@H](N)CCCNC(=N)N[N+](=O)[O-] [L-NAME, Nω-nitro-L-arginine methyl ester, reference compound]
mean infarct size, L-NAME controls ([3]; pigs, combined group of L-NAME alone and L-NAME+vehicle, 0.5 mg/kg): 36.9±3.7%

CCCCCCCCCCCC(CC(=O)N[C@H]1[C@H](OC[C@H](NC(=O)CC(CCCCCCCCCCC)OC(=O)CCCCCCCCC)C(=O)O)O[C@H](CO)[C@@H](OP(=O)(O)O)[C@@H]1OC(=O)CC(CCCCCCCCCCC)OC(=O)CCCCC)OC(=O)CCCCC (some centres unmarked) [Compound 5.67]
cytokine stimulation [1]: − (−, not observable at 10 μg/mL)
pyrogenicity (USP rabbit pyrogen test; second table): ++ (++>2° C.)
iNOS [2]: − (−>200)

CCCCCCCCCCCC(CC(=O)N[C@H]1[C@H](OC[C@H](NC(=O)CC(CCCCCCCCCCC)OC(=O)CCCCC)C(=O)O)O[C@H](CO)[C@@H](OP(=O)(O)O)[C@@H]1OC(=O)CC(CCCCCCCCCCC)OC(=O)CCCCC)OC(=O)CCCCC (some centres unmarked) [Compound 5.26]
cytokine stimulation [1]: − (−, not observable at 10 μg/mL)
pyrogenicity (USP rabbit pyrogen test; second table): ++ (++>2° C.)
iNOS [2]: − (−>200)
